Values belong to the molecule of their own block, whether it stands above or below them.
Columns and labels:
Format in all cases: biochemical
[1] = biological target: T1, acetolactate synthase (Escherichia coli, UniProt P0DP90); test: Oxygenase activity of acetolactate synthase with different substrates (oxygen-sensitive electrode)
T1 sequence (P0DP90 1-548): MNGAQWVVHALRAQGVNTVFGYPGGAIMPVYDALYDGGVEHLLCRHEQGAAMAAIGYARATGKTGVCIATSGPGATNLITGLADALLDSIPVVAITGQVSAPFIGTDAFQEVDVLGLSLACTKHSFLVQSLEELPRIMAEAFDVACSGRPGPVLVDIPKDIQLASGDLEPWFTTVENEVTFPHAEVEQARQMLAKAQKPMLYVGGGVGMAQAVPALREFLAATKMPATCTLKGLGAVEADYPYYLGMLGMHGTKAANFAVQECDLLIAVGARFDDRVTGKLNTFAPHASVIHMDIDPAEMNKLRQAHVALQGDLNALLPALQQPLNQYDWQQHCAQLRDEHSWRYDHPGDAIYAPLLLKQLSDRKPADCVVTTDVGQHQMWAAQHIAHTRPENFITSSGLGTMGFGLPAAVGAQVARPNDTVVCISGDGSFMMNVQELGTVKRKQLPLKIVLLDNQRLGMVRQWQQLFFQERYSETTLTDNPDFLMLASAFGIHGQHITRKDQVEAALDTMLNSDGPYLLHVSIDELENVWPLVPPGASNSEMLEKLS
T1 sequence (P0ADG1 1-87 partner): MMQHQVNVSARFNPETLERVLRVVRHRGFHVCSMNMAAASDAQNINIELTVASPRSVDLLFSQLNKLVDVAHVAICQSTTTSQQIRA
Method: (§1) To a 1 ml solution containing 0.1 M tricine-NaOH, pH 8, 10 mM MgCl2, 0.1 mM thiamine pyrophosphate, and 0.1 mM flavin adenine dinucleotide were added various concentrations of pyruvate (10 μM to 10 mM), α-keto-butyrate (10 μM to 80 mM), or acetolactate (0.15 to 5.5 mM). After allowing the solution to equilibrate with air (21 % O2), the level of dissolved oxygen was monitored by use of a commercially available oxygen-sensitive electrode (Hansatech) and polarographic electronics as described by Sweet et al. (Analytical Biochemistry 107:337 (1980)). In the absence of further additions, negligible oxygen was consumed over a 30 minute period. To initiate the consumption of oxygen, 20 μl of a 2 mg/ml stock solution of acetolactate synthase was added if pyruvate or α-acetolactate were used as substrate, or 5 μl of a 49 mg/ml stock solution of acetolactate synthase was added if α-ketobutyrate was used as substrate. The limiting rate of oxygen consumption at saturating concentrations of pyruvate, α-ketobutyrate, or α-acetolactate are illustrated in Table 1. The concentrations of α-acetolactate or α-ketobutyrate that gave half of the maximum rate (the Michaelis constant) were 1.4 mM and 32 μM, respectively.

[2] = biological target: T1, acetolactate synthase; test: Sensitivity of the oxygenase activity of acetolactate synthase to herbicides (oxygen-sensitive electrode); settings: 100 μM pyruvate as substrate; rate of oxygen consumption; pH 8; read-out: Concentration that Gives 50% Inhibition
Method: as §1, with “The concentrations of α-acetolactate or α-ketobutyrate that gave half of the maximum rate (the Michaelis constant) were 1.4 mM and 32 μM, respectively.” left out
Assays were conducted as described under Examples 1-3, except that 100 μM pyruvate was used as substrate. […] These values are similar to previously reported values (Schloss et al. Nature 331:360 (1988)) for inhibition of the enzyme monitored by use of the known acetolactate-forming reaction.

[3] = substrate: CC(=O)C(C)(O)C(=O)O; test: Oxygenase activity of acetolactate synthase with different substrates (oxygen-sensitive electrode); settings: other: oxygen consumption, pH 8, air-equilibrated
Method: as §1

[4] = substrate: CCC(=O)C(=O)O; test: as above; settings: other: oxygen consumption, pH 8, air-equilibrated
Method: as §1

Km ([1]; oxygen consumption, pH 8, air-equilibrated, read-out: Concentration that gave half of the maximum rate (the Michaelis constant)): < 10 µM
Molecule: CC(=O)C(=O)O [Pyruvate]

Molecule: COc1nc(C)nc(NC(=O)NS(=O)(=O)c2ccccc2Cl)n1 [chlorsulfuron]
IC50 [2]: 500 nM

Molecule: COC(=O)c1ccccc1S(=O)(=O)NC(=O)Nc1nc(C)cc(C)n1 [sulfometuron methyl]
IC50 [2]: 1000 nM

Maximum rate (μmoles of oxygen consumed/mg enzyme/min) ([1]; limiting rate of oxygen consumption at saturating substrate, 0.1 M tricine-NaOH pH 8, air-equilibrated (21 % O2)): 0.20 μmoles of oxygen consumed/mg e
Molecule: CC(=O)C(C)(O)C(=O)O (stereo not drawn) [α-Acetolactate]

B1: acetolactate synthase (Escherichia coli K-12) (protein)
chain: MNGAQWVVHALRAQGVNTVFGYPGGAIMPVYDALYDGGVEHLLCRHEQGAAMAAIGYARATGKTGVCIATSGPGATNLITGLADALLDSIPVVAITGQVSAPFIGTDAFQEVDVLGLSLACTKHSFLVQSLEELPRIMAEAFDVACSGRPGPVLVDIPKDIQLASGDLEPWFTTVENEVTFPHAEVEQARQMLAKAQKPMLYVGGGVGMAQAVPALREFLAATKMPATCTLKGLGAVEADYPYYLGMLGMHGTKAANFAVQECDLLIAVGARFDDRVTGKLNTFAPHASVIHMDIDPAEMNKLRQAHVALQGDLNALLPALQQPLNQYDWQQHCAQLRDEHSWRYDHPGDAIYAPLLLKQLSDRKPADCVVTTDVGQHQMWAAQHIAHTRPENFITSSGLGTMGFGLPAAVGAQVARPNDTVVCISGDGSFMMNVQELGTVKRKQLPLKIVLLDNQRLGMVRQWQQLFFQERYSETTLTDNPDFLMLASAFGIHGQHITRKDQVEAALDTMLNSDGPYLLHVSIDELENVWPLVPPGASNSEMLEKLS
Km [3]: 1400 µM | Km [4]: 32 µM

From patent US5206135A, “Use of the oxygenase activity of acetolactate synthase for herbicide detection” (E. I. Du Pont de Nemours and Company, priority 1990, dated 1993)
